Measurements published in article PMC10739865, “The Mycobacterium tuberculosis methyltransferase Rv2067c manipulates host epigenetic programming to promote its own survival” (Nature Communications, 2023).

Legend:
Rv2067c [1] = molecular target: T1, Rv2067c (Mycobacterium tuberculosis, UniProt P9WLL9)
Rv2067c [2] = molecular target: T1, Rv2067c; remark: listed apart in the source

T1 sequence (P9WLL9 whole entry): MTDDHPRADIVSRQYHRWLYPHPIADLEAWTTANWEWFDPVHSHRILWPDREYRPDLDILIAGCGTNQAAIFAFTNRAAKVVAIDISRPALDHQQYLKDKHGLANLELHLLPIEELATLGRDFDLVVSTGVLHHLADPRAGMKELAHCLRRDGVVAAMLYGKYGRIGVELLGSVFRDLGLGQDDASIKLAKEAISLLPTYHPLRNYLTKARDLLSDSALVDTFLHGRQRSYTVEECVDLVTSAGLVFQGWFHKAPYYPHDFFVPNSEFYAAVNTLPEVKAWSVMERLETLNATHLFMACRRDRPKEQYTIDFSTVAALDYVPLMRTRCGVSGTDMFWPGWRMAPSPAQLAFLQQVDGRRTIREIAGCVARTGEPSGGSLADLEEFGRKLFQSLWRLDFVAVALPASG

SMILES	radiometric methyltransferase assay (scintillation counting, autoradiography) (Rv2067c [1])	X-ray crystallography, 2.40 Å (Rv2067c [2])
C[S+](CC[C@H](N)C(=O)O)C[C@H]1O[C@@H](n2cnc3c(N)ncnc32)[C@H](O)[C@@H]1O (stereo partly drawn) [S-Adenosyl-L-methionine]	Rv2067c as MTase, and tritiated SAM as a methyl donor, methylation of histones was detected	
Nc1ncnc2c1ncn2[C@@H]1O[C@H](CSCC[C@H](N)C(=O)O)[C@@H](O)[C@H]1O [S-adenosyl-L-homocysteine]		The coordinates for Rv2067c-SAH structure have been deposited in the Protein Data Bank
